Measurements from the NIST ThermoML archive (doi:10.1016/j.jct.2012.12.003).

How the values were obtained:
[1] = xn = mol fraction of the nth substance listed; conditions: 101.3 kPa, Liquid, Vibrating tube method
[2] = 101.3 kPa, Liquid, Vibrating tube method

CO [methanol] + CC(O)CO
[1], x2 = 0
Conditions | mass density [kg/m3]
293.15 K | 791.494
298.15 K | 786.794
303.15 K | 782.071
308.15 K | 777.326
313.15 K | 772.55
318.15 K | 767.744

CCCCCCO [hexan-1-ol] + CC(O)CO
[1], x2 = 0
Conditions | mass density [kg/m3]
293.15 K | 818.749
298.15 K | 815.188
303.15 K | 811.6
308.15 K | 807.984
313.15 K | 804.339
318.15 K | 800.657

CO [methanol]
[2]
Conditions | mass density [kg/m3]
293.15 K | 791.494
298.15 K | 786.794
303.15 K | 782.071
308.15 K | 777.326
313.15 K | 772.55
318.15 K | 767.744

CCCCCCCCO [octan-1-ol]
[2]
Conditions | mass density [kg/m3]
293.15 K | 825.093
298.15 K | 821.647
303.15 K | 818.177
308.15 K | 814.686
313.15 K | 811.171
318.15 K | 807.629

CCCCCCCCO [octan-1-ol] + CC(O)CO
[1], x2 = 0
Conditions | mass density [kg/m3]
293.15 K | 825.093
298.15 K | 821.647
303.15 K | 818.177
308.15 K | 814.686
313.15 K | 811.171
318.15 K | 807.629

CC(O)CO (stereo unspecified) [1,2-propanediol] + CO
mass density [kg/m3], [1]
Conditions | x1 = 0.1008 | x1 = 0.1385 | x1 = 0.2582 | x1 = 0.3 | x1 = 0.4851 | x1 = 0.5476 | x1 = 0.6991 | x1 = 0.7595 | x1 = 0.8991 | x1 = 1
293.15 K | 838.277 | 853.548 | 895.155 | 908.078 | 954.527 | 967.74 | 995.074 | 1004.49 | 1024 | 1036.17
298.15 K | 833.79 | 849.127 | 890.917 | 903.893 | 950.534 | 963.799 | 991.242 | 1000.7 | 1020.29 | 1032.52
303.15 K | 829.274 | 844.68 | 886.644 | 899.676 | 946.507 | 959.825 | 987.37 | 996.862 | 1016.54 | 1028.83
308.15 K | 824.731 | 840.206 | 882.346 | 895.43 | 942.448 | 955.815 | 983.47 | 992.997 | 1012.75 | 1025.09
313.15 K | 820.164 | 835.7 | 878.013 | 891.151 | 938.356 | 951.772 | 979.532 | 989.094 | 1008.92 | 1021.31
318.15 K | 815.56 | 831.158 | 873.648 | 886.837 | 934.226 | 947.684 | 975.556 | 985.157 | 1005.05 | 1017.49

CC(O)CO (stereo unspecified) [1,2-propanediol] + CCCCCCCCCO
[1], x1 = 1
Conditions | mass density [kg/m3]
293.15 K | 1036.17
298.15 K | 1032.52
303.15 K | 1028.83
308.15 K | 1025.09
313.15 K | 1021.31
318.15 K | 1017.49

CCCO [propan-1-ol] + CC(O)CO
[1], x2 = 0
Conditions | mass density [kg/m3]
293.15 K | 803.527
298.15 K | 799.528
303.15 K | 795.493
308.15 K | 791.426
313.15 K | 787.32
318.15 K | 783.164

CCCCCCCCCO [nonan-1-ol] + CC(O)CO
mass density [kg/m3], [1]
Conditions | x2 = 0 | x2 = 0.1056 | x2 = 0.225 | x2 = 0.3433 | x2 = 0.3773 | x2 = 0.5551 | x2 = 0.6746 | x2 = 0.7695 | x2 = 0.7978 | x2 = 0.899
293.15 K | 827.667 | 836.639 | 848.601 | 862.671 | 867.271 | 895.783 | 920.803 | 945.697 | 953.952 | 989.338
298.15 K | 824.254 | 833.182 | 845.095 | 859.126 | 863.71 | 892.163 | 917.143 | 942.013 | 950.266 | 985.641
303.15 K | 820.815 | 829.698 | 841.567 | 855.554 | 860.127 | 888.513 | 913.452 | 938.296 | 946.543 | 981.914
308.15 K | 817.362 | 826.204 | 838.022 | 851.964 | 856.523 | 884.841 | 909.736 | 934.554 | 942.791 | 978.153
313.15 K | 813.885 | 822.685 | 834.458 | 848.353 | 852.901 | 881.148 | 906.002 | 930.783 | 939.015 | 974.358
318.15 K | 810.385 | 819.146 | 830.872 | 844.72 | 849.257 | 877.428 | 902.236 | 926.985 | 935.207 | 970.53

CC(O)CO (stereo unspecified) [1,2-propanediol] + CCCO
mass density [kg/m3], [1]
Conditions | x1 = 0.1001 | x1 = 0.2 | x1 = 0.3001 | x1 = 0.3999 | x1 = 0.4999 | x1 = 0.6997 | x1 = 0.7998 | x1 = 0.9497 | x1 = 1
293.15 K | 827.101 | 850.504 | 873.567 | 897.361 | 920.615 | 967.056 | 990.126 | 1024.72 | 1036.13
298.15 K | 823.072 | 846.479 | 869.634 | 893.372 | 916.676 | 963.215 | 986.331 | 1021.04 | 1032.48
303.15 K | 819.008 | 842.415 | 865.603 | 889.385 | 912.697 | 959.329 | 982.502 | 1017.3 | 1028.78
308.15 K | 814.909 | 838.312 | 861.519 | 885.326 | 908.683 | 955.407 | 978.642 | 1013.52 | 1025.05
313.15 K | 810.77 | 834.174 | 857.399 | 881.264 | 904.631 | 951.451 | 974.743 | 1009.71 | 1021.28
318.15 K | 806.589 | 829.994 | 853.237 | 877.138 | 900.544 | 947.456 | 970.809 | 1005.86 | 1017.47

CC(O)CO (stereo unspecified) [1,2-propanediol] + CCCCCCCCO
mass density [kg/m3], [1]
Conditions | x1 = 0.1028 | x1 = 0.1938 | x1 = 0.3029 | x1 = 0.3929 | x1 = 0.5181 | x1 = 0.6002 | x1 = 0.7012 | x1 = 0.8016 | x1 = 0.901 | x1 = 1
293.15 K | 834.904 | 844.743 | 858.314 | 871.118 | 892.06 | 908.213 | 931.472 | 959.327 | 993.344 | 1036.22
298.15 K | 831.409 | 841.209 | 854.74 | 867.513 | 888.414 | 904.545 | 927.781 | 955.627 | 989.648 | 1032.56
303.15 K | 827.891 | 837.652 | 851.144 | 863.884 | 884.743 | 900.85 | 924.062 | 951.891 | 985.914 | 1028.85
308.15 K | 824.351 | 834.08 | 847.528 | 860.235 | 881.051 | 897.13 | 920.315 | 948.124 | 982.15 | 1025.1
313.15 K | 820.793 | 830.481 | 843.885 | 856.562 | 877.332 | 893.39 | 916.543 | 944.333 | 978.349 | 1021.31
318.15 K | 817.208 | 826.859 | 840.223 | 852.864 | 873.592 | 889.619 | 912.743 | 940.506 | 974.513 | 1017.49

CC(O)CO (stereo unspecified) [1,2-propanediol] + CCCCCCO
mass density [kg/m3], [1]
Conditions | x1 = 0.1014 | x1 = 0.1998 | x1 = 0.2999 | x1 = 0.4003 | x1 = 0.4939 | x1 = 0.5996 | x1 = 0.6965 | x1 = 0.7989 | x1 = 0.9005 | x1 = 1
293.15 K | 831.496 | 845.231 | 860.667 | 877.818 | 895.533 | 917.945 | 941.028 | 968.795 | 1000.46 | 1036.21
298.15 K | 827.881 | 841.574 | 856.979 | 874.105 | 891.801 | 914.203 | 937.285 | 965.064 | 996.753 | 1032.55
303.15 K | 824.235 | 837.887 | 853.262 | 870.363 | 888.041 | 910.432 | 933.51 | 961.302 | 993.003 | 1028.84
308.15 K | 820.566 | 834.178 | 849.521 | 866.596 | 884.256 | 906.63 | 929.702 | 957.503 | 989.222 | 1025.09
313.15 K | 816.869 | 830.44 | 845.751 | 862.8 | 880.441 | 902.801 | 925.868 | 953.677 | 985.406 | 1021.31
318.15 K | 813.142 | 826.676 | 841.952 | 858.977 | 876.599 | 898.941 | 922.002 | 949.81 | 981.555 | 1017.49
